Experimental data published in ChEMBL document CHEMBL1157454, “Citral derived amides as potent bacterial NorA efflux pump inhibitors” (2008).
≈ marks a conversion by molar mass, not a printed value. Calls of active or inactive are those of the source. No cut-off for these calls is given here.

Legend:
Staphylococcus aureus [1] = experiment: Antimicrobial activity against Staphylococcus aureus 1199 at 100 ug/ml after 18 hrs by twofold serial dilution method; assay type: functional, organism-based
Staphylococcus aureus [2] = experiment: Antimicrobial activity against NorA overexpressing Staphylococcus aureus 1199B at 100 ug/ml after 18 hrs by twofold serial dilution method; assay type: functional, organism-based
[3] = molecular target: T1, Quinolone resistance protein NorA (Staphylococcus aureus) (UniProt P0A0J7)
T1 sequence (whole entry): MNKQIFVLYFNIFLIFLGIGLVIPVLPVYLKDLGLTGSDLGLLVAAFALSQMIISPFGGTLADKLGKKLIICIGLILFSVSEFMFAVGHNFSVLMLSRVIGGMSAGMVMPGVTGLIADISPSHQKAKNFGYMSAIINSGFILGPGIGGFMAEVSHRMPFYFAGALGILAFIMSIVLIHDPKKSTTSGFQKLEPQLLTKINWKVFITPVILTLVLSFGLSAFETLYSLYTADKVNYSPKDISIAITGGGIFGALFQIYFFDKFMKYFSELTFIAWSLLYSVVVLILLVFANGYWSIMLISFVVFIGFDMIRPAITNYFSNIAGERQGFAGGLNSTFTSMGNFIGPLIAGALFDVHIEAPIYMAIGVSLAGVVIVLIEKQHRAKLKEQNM

[4] = molecular target: T1, Quinolone resistance protein NorA (Staphylococcus aureus); conditions: 1199B
[5] = molecular target: T1, Quinolone resistance protein NorA (Staphylococcus aureus); experiment: Inhibition of NorA efflux pump in Staphylococcus aureus 1199B assessed as fold reduction of ciprofloxacin MIC at 12.5 ug/ml
[6] = molecular target: T1, Quinolone resistance protein NorA (Staphylococcus aureus); experiment: Inhibition of NorA efflux pump in Staphylococcus aureus 1199B assessed as fold reduction of ciprofloxacin MIC at 25 ug/ml
[7] = molecular target: T1, Quinolone resistance protein NorA (Staphylococcus aureus); experiment: Inhibition of NorA efflux pump in Staphylococcus aureus 1199 assessed as fold reduction of ciprofloxacin MIC at 25 ug/ml
[8] = molecular target: T1, Quinolone resistance protein NorA (Staphylococcus aureus); experiment: Inhibition of NorA efflux pump in Staphylococcus aureus 1199 assessed as fold reduction of ciprofloxacin MIC at 12.5 ug/ml
[9] = molecular target: T1, Quinolone resistance protein NorA (Staphylococcus aureus); experiment: Inhibition of NorA efflux pump in Staphylococcus aureus 1199 assessed as fold reduction of ciprofloxacin MIC at 6.25 ug/ml
[10] = molecular target: T1, Quinolone resistance protein NorA (Staphylococcus aureus); experiment: Inhibition of NorA efflux pump in Staphylococcus aureus 1199B assessed as fold reduction of ciprofloxacin MIC at 6.25 ug/ml

Row | Compound | Activity (Staphylococcus aureus [1]) | Activity (Staphylococcus aureus [2]) | fold reduction [6] | other results
1 | CC(C)=CCC/C(C)=C/C=C/C(=O)NCC(C)C | inactive | inactive | – | –
2 | CC(C)=CCCC(C)C/C=C/C(=O)NCc1ccccc1 (stereo not given) | inactive | inactive | – | MIC [3]: 4 µg/mL (≈ 14 µM); MIC [4]: 4 µg/mL (≈ 14 µM)
3 | C/C(C=O)=C\CCC(C)CCCC(=O)NCc1ccccc1 (stereo not given) | inactive | inactive | – | –
4 | O=C(/C=C/C=C/c1ccc2c(c1)OCO2)N1CCCCC1 | – | – | – | MIC [3]: 2 µg/mL (≈ 7.01 µM); MIC [4]: 2 µg/mL (≈ 7.01 µM)
5 | COc1ccccc1NC(=O)/C=C/CC(C)CCC=C(C)C (stereo not given) | inactive | inactive | – | fold reduction [5]: 2
6 | CCCCCCCCNC(=O)/C=C/CC(C)CC/C=C(\C)C=O (stereo not given) | inactive | inactive | 4 | –
7 | COc1ccccc1NC(=O)CCCC(C)CCC=C(C)C (stereo not given) | inactive | inactive | – | –
8 | COC(=O)[C@H]1[C@H]2C[C@@H]3c4[nH]c5cc(OC)ccc5c4CCN3C[C@H]2C[C@@H](OC(=O)c2cc(OC)c(OC)c(OC)c2)[C@@H]1OC | – | – | 4 | fold reduction [7]: 2
9 | C/C(C=O)=C\CC/C(C)=C/C=C/C(=O)NCc1ccccc1 | inactive | inactive | 4 | fold reduction [5]: 2; fold reduction [7]: 2
10 | CCCCCCCCNC(=O)/C=C/CC(C)CCC=C(C)C (stereo not given) | inactive | inactive | – | –
11 | CC(C)=CCC/C(C)=C/C=C/C(=O)NCc1ccccc1 | inactive | inactive | 4 | fold reduction [5]: 2; fold reduction [7]: 2
12 | C/C(C=O)=C\CC/C(C)=C/C=C/C(=O)N1CCOCC1 | inactive | inactive | – | –
13 | CCCCCCCCNC(=O)CCCC(C)CCC=C(C)C (stereo not given) | inactive | inactive | – | –
14 | COc1ccc(NC(=O)/C=C/C=C(\C)CCC=C(C)C)cc1 | inactive | inactive | – | –
15 | C/C(C=O)=C\CC/C(C)=C/C=C/C(=O)N(C(C)C)C(C)C | inactive | inactive | 4 | fold reduction [5]: 2
16 | CC(C)=CCC/C(C)=C/C=C/C(=O)NC(C)C | inactive | inactive | – | –

Row | Compound | Activity (Staphylococcus aureus [1]) | Activity (Staphylococcus aureus [2]) | fold reduction [6] | other results
17 | CCCCCCCCNC(=O)/C=C/C=C(\C)CC/C=C(\C)C=O | inactive | inactive | 4 | fold reduction [5]: 2; fold reduction [8]: 2; fold reduction [7]: 2
18 | COc1ccccc1NC(=O)/C=C/C=C(\C)CCC=C(C)C | inactive | inactive | 4 | fold reduction [7]: 2
19 | CC(C)=CCC/C(C)=C/C=C/C(=O)Nc1ccccc1 | inactive | inactive | – | –
20 | CCCCCCCCNC(=O)/C=C/C=C(\C)CCC=C(C)C | inactive | inactive | 4 | fold reduction [5]: 2; fold reduction [8]: 2; fold reduction [7]: 4
21 | CC(C)=CCC/C(C)=C/C=C/C(=O)N1CCOCC1 | inactive | inactive | – | –
22 | CC(C)=CCC/C(C)=C/C=C/C(=O)Nc1ccccc1C | inactive | inactive | – | –
23 | CC(C)=CCC/C(C)=C/C=C/C(=O)N1CCCCC1 | inactive | inactive | – | fold reduction [5]: 2; fold reduction [8]: 2
24 | C/C(C=O)=C\CCC(C)CCCC(=O)N1CCCCC1 (stereo not given) | inactive | inactive | – | –
25 | CC(C)=CCC/C(C)=C/C=C/C(=O)O | inactive | inactive | – | –
26 | C/C(C=O)=C\CC/C(C)=C/C=C/C(=O)N1CCCC1 | inactive | inactive | – | –
27 | CC(C)c1cc2c(c(O)c1O)[C@@]1(C(=O)O)CCCC(C)(C)[C@@H]1CC2 | – | – | 2 | fold reduction [7]: 2
28 | CC(C)=CCC/C(C)=C/C=C/C(=O)N1CCCC1 | inactive | inactive | – | –
29 | C/C(C=O)=C\CC/C(C)=C/C=C/C(=O)N1CCCCC1 | inactive | inactive | 4 | fold reduction [9]: 2; fold reduction [10]: 2
30 | CC(C)=CCC/C(C)=C/C=C/C(=O)N(C(C)C)C(C)C | inactive | inactive | 4 | fold reduction [7]: 2
31 | COc1ccccc1NC(=O)/C=C/CC(C)CC/C=C(\C)C=O (stereo not given) | inactive | inactive | 4 | –
32 | CC(C)=CCCC(C)C/C=C/C(=O)N1CCCCC1 (stereo not given) | inactive | inactive | – | fold reduction [5]: 2
